Test results: PMC3914206

Tests used:
Format in all cases: binding
Conditions in all cases: Compound Concentration 10 µM
panel of 442 kinases [1] = target: T1, panel of 442 kinases (Homo sapiens, UniProt P10721, D816H)
T1 construct: purchased KINOMEscan
Text: (§1) We assessed the selectivity of members of this scaffold using the KINOMEscan methodology across a near comprehensive panel of 442 kinases [[18,27]].

panel of 442 kinases [2] = target: T2, panel of 442 kinases (Homo sapiens, UniProt O75460)
T2 construct: purchased KINOMEscan
T2 sequence (O75460 19-977): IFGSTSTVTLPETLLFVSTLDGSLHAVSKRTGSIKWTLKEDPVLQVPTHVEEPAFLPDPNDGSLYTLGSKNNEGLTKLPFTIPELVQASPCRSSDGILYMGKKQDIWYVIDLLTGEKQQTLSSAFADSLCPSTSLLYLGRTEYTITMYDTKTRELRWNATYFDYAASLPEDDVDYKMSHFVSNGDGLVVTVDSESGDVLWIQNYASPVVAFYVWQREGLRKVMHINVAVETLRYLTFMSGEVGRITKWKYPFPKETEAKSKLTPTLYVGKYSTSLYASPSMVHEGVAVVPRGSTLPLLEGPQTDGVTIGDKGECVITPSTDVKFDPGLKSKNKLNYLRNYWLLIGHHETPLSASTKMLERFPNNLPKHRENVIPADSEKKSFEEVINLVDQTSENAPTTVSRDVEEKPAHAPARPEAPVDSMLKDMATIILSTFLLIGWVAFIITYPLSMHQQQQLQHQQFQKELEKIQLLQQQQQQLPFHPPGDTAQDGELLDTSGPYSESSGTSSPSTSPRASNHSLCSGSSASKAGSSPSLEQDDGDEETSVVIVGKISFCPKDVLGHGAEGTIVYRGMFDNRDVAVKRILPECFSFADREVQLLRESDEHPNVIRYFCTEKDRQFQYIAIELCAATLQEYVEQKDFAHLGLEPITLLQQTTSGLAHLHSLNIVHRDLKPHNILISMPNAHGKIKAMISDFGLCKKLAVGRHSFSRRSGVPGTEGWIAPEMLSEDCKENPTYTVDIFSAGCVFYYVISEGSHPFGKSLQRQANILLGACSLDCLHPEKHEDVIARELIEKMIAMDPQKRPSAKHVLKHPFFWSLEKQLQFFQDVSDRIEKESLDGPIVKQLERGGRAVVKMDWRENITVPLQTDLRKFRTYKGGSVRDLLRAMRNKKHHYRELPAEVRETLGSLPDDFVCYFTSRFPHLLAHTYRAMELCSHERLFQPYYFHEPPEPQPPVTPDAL
Text: as §1

panel of 442 kinases [3] = target: T3, panel of 442 kinases (Homo sapiens, UniProt Q96RR4)
T3 construct: purchased KINOMEscan
T3 sequence (Q96RR4 whole entry): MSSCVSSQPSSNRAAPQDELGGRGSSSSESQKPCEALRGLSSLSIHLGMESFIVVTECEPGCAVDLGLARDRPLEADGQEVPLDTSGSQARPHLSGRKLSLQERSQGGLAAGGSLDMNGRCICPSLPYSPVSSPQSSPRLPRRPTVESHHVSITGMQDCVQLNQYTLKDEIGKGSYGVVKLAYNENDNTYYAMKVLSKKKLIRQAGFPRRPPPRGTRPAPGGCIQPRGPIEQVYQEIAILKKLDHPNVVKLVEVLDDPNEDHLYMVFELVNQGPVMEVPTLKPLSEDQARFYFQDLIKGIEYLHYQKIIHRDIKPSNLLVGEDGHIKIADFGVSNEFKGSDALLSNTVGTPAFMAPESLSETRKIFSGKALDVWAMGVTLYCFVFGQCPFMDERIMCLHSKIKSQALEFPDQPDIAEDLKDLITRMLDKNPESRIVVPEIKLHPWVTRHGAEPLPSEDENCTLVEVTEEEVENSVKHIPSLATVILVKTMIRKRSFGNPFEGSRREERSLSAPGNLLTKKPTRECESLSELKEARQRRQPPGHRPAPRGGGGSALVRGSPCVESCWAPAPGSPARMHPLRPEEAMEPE
Text: as §1

T1 sequence (P10721 26-976 D816H): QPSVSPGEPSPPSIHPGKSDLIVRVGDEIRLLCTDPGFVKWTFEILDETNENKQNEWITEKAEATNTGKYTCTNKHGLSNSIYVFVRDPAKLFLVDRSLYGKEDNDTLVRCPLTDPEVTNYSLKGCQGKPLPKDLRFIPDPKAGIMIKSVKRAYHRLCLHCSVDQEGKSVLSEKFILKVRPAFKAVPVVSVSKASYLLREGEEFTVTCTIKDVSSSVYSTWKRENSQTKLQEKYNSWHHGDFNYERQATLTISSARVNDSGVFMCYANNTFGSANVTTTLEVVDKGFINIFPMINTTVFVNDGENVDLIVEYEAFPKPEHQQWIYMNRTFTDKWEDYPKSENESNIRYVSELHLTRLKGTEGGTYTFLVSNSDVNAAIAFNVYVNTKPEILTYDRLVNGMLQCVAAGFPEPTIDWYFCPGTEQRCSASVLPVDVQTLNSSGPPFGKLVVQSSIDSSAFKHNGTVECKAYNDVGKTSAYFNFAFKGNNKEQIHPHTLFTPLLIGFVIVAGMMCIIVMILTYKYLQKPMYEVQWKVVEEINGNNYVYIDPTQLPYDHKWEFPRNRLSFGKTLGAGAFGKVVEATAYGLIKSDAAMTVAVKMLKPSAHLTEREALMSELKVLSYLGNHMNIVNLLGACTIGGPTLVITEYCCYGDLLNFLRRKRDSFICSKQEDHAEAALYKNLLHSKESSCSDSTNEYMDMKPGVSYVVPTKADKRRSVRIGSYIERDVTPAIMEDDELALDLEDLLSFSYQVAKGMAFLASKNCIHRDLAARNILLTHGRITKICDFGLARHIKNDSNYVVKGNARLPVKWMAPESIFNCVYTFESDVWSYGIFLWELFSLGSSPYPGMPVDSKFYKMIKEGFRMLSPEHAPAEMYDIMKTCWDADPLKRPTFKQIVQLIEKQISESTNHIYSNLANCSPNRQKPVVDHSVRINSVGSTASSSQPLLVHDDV

COc1cc(C(=O)N2CCC(N3CCN(C)CC3)CC2)ccc1Nc1ncc2c(n1)N(C)c1ccccc1C(=O)N2C [15 (LRRK2-IN-1)]
KINOMEscan: KIT(D816H) (panel of 442 kinases [1]): 100
KINOMEscan: ERN1 (panel of 442 kinases [2]): 59
KINOMEscan: CAMKK2 (panel of 442 kinases [3]): 31

CCOc1cc(C(=O)N2CCC(N3CCN(C)CC3)CC2)ccc1Nc1ncc2c(n1)N(C1CCCC1)c1ccccc1C(=O)N2C [Compound 26]
KINOMEscan: KIT(D816H) (panel of 442 kinases [1]): 100
KINOMEscan: ERN1 (panel of 442 kinases [2]): 87
KINOMEscan: CAMKK2 (panel of 442 kinases [3]): 100

COc1cc(C(=O)N2CCC(N3CCN(C)CC3)CC2)ccc1Nc1ncc2c(n1)N1CCc3cccc(c31)C(=O)N2C [Compound 24]
KINOMEscan: CAMKK2 (panel of 442 kinases [3]): 52

COc1cc(C(=O)N2CCC(N3CCN(C)CC3)CC2)ccc1Nc1ncc2c(n1)N(C1CCCC1)c1ccccc1C(=O)N2C [Compound 25, 11-cyclopentyl-2-((2-methoxy-4-(4-(4-methylpiperazin-1-yl)piperidine-1-carbonyl)phenyl)amino)-5-methyl-5H-benzo[e]pyrimido[5,4-b][1,4]diazepin-6(11H)-one]
KINOMEscan: KIT(D816H) (panel of 442 kinases [1]): 100
KINOMEscan: ERN1 (panel of 442 kinases [2]): 96
KINOMEscan: CAMKK2 (panel of 442 kinases [3]): 78
